The values below come from ChEMBL document CHEMBL1136365, “Hepatoprotective pyrrole derivatives of Lycium chinense fruits” (2003).

Holding throughout (type): functional, Hepatocyte
Assay [1] is filed under the species Rattus norvegicus. Nature of the assay: Tested for release of glutamic pyruvic transaminase (GPT) from CCl4 induced toxicity in primary cultures of rat hepatocytes at 0.1 uM concentration.
The species named for assay [2] is Rattus norvegicus. Nature of the assay: Tested for release of glutamic pyruvic transaminase (GPT) from CCl4 induced toxicity in primary cultures of rat hepatocytes at 1 uM concentration.
The species entered for assay [3] is Rattus norvegicus. Nature of the assay: Tested for release of glutamic pyruvic transaminase (GPT) from CCl4 induced toxicity in primary cultures of rat hepatocytes at 10 uM concentration.
The species named for assay [4] is Rattus norvegicus. Nature of the assay: Tested for release of glutamic pyruvic transaminase (GPT) from CCl4 induced toxicity in primary cultures of rat hepatocytes at 0.01 uM concentration.
The species named for assay [5] is Rattus norvegicus. Description: Tested for release of glutamic pyruvic transaminase (GPT) from CCl4 induced toxicity in primary cultures of rat hepatocytes at 50 uM concentration.

In the case of `O=Cc1ccc(CO)n1CCCC(=O)O`, the Relative protection in assay [1] stood at 64.4%; in assay [2] it was 39.7%; in assay [3] it was 3.2%; in assay [4], 12.4%.

As for `COC(=O)CCCn1c(C=O)ccc1CO`, the Relative protection in assay [1] stood at 30.8%; in assay [2] it was 40.8%; in assay [3], 20.8%; in assay [4], 5.1%.

Turning to `COCc1ccc(C=O)n1CCCC(=O)OC`, the Relative protection came to 38.5% in assay [1], 13.2% in assay [2], 15.9% in assay [3] and 8.9% in assay [4].

As for `COCc1ccc(C=O)n1CCCC(=O)O`, the Relative protection worked out at 65.8% in assay [1], 29.2% in assay [2], 14.2% in assay [3] and 36% in assay [4].

Regarding `COc1cc([C@H]2Oc3cc([C@H]4Oc5cc(O)cc(O)c5C(=O)[C@@H]4O)ccc3O[C@@H]2CO)ccc1O` [SILIBININ], the Relative protection was determined as 14.6% in assay [2], 28.8% in assay [3] and 45.5% in assay [5].
